Patent US20130156845A1, “LIPID FORMULATED SINGLE STRANDED RNA” (ALNYLAM PHARMACEUTICALS, INC., priority 2010, published 2013)
Read-outs that look alike come from different tables or passages of the source. e = 2'-O-(2-methoxyethyl) (MOE); {P} = phosphate; f = 2'-fluoro

Key:
PTEN [1] = assay: PTEN mRNA reduction in HeLa cells, dose response (Example 72); assay type: cell-based, human; conditions: percent inhibition of PTEN mRNA, 0.167-50 nM
Procedure: In accordance with the present disclosure, oligomeric compounds were synthesized and tested for their ability to reduce PTEN expression over a range of doses. Human HeLa cells were treated with the following oligomeric compounds. A dose comparison was evaluated with dose concentrations of 0.167, 0.5, 1.5, 5, 15 and 50 nM using methods described herein. Expression levels of PTEN were determined using real-time PCR and normalized to RIBOGREEN™ using methods described herein. The percent inhibition of PTEN mRNA was determined and the resulting dose-response curves were used to determine the IC50. The IC50s are listed below.

PTEN [2] = assay: PTEN mRNA reduction in HeLa cells, dose response (Example 64); assay type: cell-based, human; conditions: real-time PCR, 1.56-50 nM
Procedure: A dose response experiment was performed targeting PTEN in human HeLa cells to determine the effects of placement of sugar and internucleoside linkages within ssRNAs. More specifically, the modified ssRNAs were tested for their ability to reduce PTEN mRNA in cultured cells. The modified ssRNAs are shown below, and contain 2′-OMe and 2′-fluoro modified nucleosides, two 2′-O-MOE modified nucleosides at the 3′-terminus, and seven phosphorothioate linkages at the 3′-terminus of the ssRNAs.
HeLa cells were treated with ssRNAs shown below at concentrations of 1.56 nM, 3.13 nM, 6.25 nM, 12.5 nM, […] and 50 nM using methods described herein. Levels of mRNA were determined using real-time PCR methods as described herein. The IC50 for each ssRNA was determined.

[3] = Modified ssRNA 5′-phosphate serum stability assay (Example 60); assay type: in vitro ADME; conditions: full length ssRNA with 5′-terminal phosphate; 10 μM in 95% fresh mouse serum, 37° C., LC/MS
Description: A serum stability assay is useful for evaluating the stability of oligomeric compounds in the presences of nucleases and other enzymes found in serum. For example, the stability of a 5′-terminal phosphate group of an oligomeric compound can be evaluated by assessing the ability of the 5′-terminal phosphate group to remain attached to the oligomeric compound in the presence of serum. Accordingly, a serum stability assay was employed to evaluate the stability of modified ssRNAs having a 5′-terminal phosphate group.
Various modified ssRNAs, shown below, having a 5′-terminal phosphate group (10 μM) were dissolved in 95% of fresh mouse serum and incubated at 37° C. Aliquots of serum (100 μL) were removed after 0, 1, 3, 6 or 24 hours of incubation times. The serum samples were immediately quenched and snap frozen. The samples were extracted by the strong anion exchange (SAX) and octadecylsilyl (C-18) columns. For each incubation time, the amount of full length modified ssRNA having a 5′-terminal phosphate group was determined by LC/MS, and the half-life of the full length modified ssRNA having a 5′ terminal phosphate group was calculated. The results are expressed as half-time (T1/2) in the table below.

human PTEN = assay: PTEN expression in HeLa cells, ssRNAs vs siRNAs (Example 62); assay type: cell-based
In short: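 HeLa cells treated with antisense strands either as single-stranded RNAs or duplexed with a common sense strand. PTEN mRNA levels normalized; IC50 from linear regression of normalized mRNA against log concentration.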

[4] = ssRNA stability in hepatocyte cell homogenate assay (Example 65); assay type: in vitro ADME; conditions: mouse hepatocyte homogenate, LC-MS; Test 1
Procedure: Hepatocytes were harvested from bal/c mice in ice-cold hepatocyte wash media (William E Media) with fetal bovine serum, sedimented by centrifugation at 1000 g for 8 minutes and then washed with hepatocyte wash media. Hepatocytes were homogenized with RIPA buffer (50 mM Tris pH 7.5, 10 mM MgCl2, 150 mM NaCl, 0.5% NP-40 alternative, one tablet of Roche protease inhibitor #11836170001), and centrifuged at 14000 g for 15 minutes at 4° C. and the supernatant was removed and stored in ice. Protein concentration (BSA mg/mL) was determined with Bradford assay and adjusted to a final protein concentration of 2 mg/mL by addition of Ripa buffer volume or cell homogenate volume.
[…] were homogenized in a homogenation buffer (20 mM Tris, pH 8, 20 mM EDTA and 0.1 M NaCl in 0.5% NP-40) at time points 0, 5, 10, 20, 30, 40 and 60 minutes (Exception: 06/408877 at time points 0, 15, 30, 60, 120 and 240 mins, 06/409044, at time points 0, 0.5, 1, 2, 4, 8, and 18 hours). An internal standard (18/355868, a 27-mer, 2′-O-methoxyethyl-modified phosphorothioate oligonucleotide, or 19/116847, a 5-10-5 gappmer, 2′-O-methoxyethyl-modified phosphorothioate oligonucleotide) with concentration at 20 ug/g was added prior to extraction. Tissue samples were extracted with 70 μL of NH4OH and 240 μL of phenol/chloroform/isoamyl alcohol (25:24:1). The supernatant was removed after centrifugation at 14000 rpm for 2 min. The remaining extractant was vortexed with an additional […] of water and the aqueous layer was removed and combined with the supernatant after centrifugation at 14000 rpm for 2 minutes.
Triethylammonium acetate solution at 1M ([…]) was added to the supernatant. The aqueous layer of the mixture was loaded onto the pre-conditioned Biotage™ Phenyl Solid Phase Extraction Plate (SPE plate) after centrifugation at 9000 rpm for 20 minutes. The SPE plate was washed several times with water. The sample was then eluted with 1.5 mL of 1% TEA in 90% MeOH and filtered through the Protein Precipitation Plate (Phenomenex™). The elutent was evaporated to dryness and diluted to 200 μL with 50% quenching buffer (8 M urea, 50 mM EDTA) and water before sample injection.
An Agilent 1100 Series LC/MSD system was connected in-line to a mass spectrometry. Mass spectrometer was operated in the electrospray negative ionization mode. The nebulizer nitrogen gas was set at […] and the drying nitrogen gas was set at 12 L/min. The drying temperature was 325° C. Samples (25 μL/well) were introduced via an auto sampler and reversed-phase chromatography was carried out with an XBridge OST C18 2.5 μm 2.1 mm×50 mm HPLC column using a flow rate of 300 μL/min at 55° C. The ion pair buffers consisted of A: 5 mM tributylammonium acetate (TBAA) in 20% acetonitrile and B: […] TBAA in 90% acetonitrile and the loading buffer was 25 mM TBAA in 25% Acetonitrile. Separation was performed on a 30% to 70% B in 9 min and then 80% B in 11 min gradient.
Quantitative analysis of oligonucleotide and internal standard by extracted ion chromatograms of the most abundant ions was performed using MSD ChemStation software. The results are expressed as half-time (T1/2) in the table below.

P-UfUfGfUfCfUfCfUfGfGfUfCfCfUfUfAfCfUfUfAeAe (antisense UUGUCUCUGGUCCUUACUUAA; sugars from the 5' end f19 e2, 5' {P}, backbone not given here) [ISIS 404320, modified ssRNA targeting PTEN]
IC50 (PTEN [1]): 7.6 nM
IC50 (PTEN [2]): 5.8 nM
T1/2 [3]: 4 h
EC50 (human PTEN; antisense strand duplexed with sense strand ISIS 341401, PTEN mRNA, read-out: EC50 (nM) siRNA): 0.5 nM
EC50 (human PTEN; single stranded antisense compound, PTEN mRNA, read-out: EC50 (nM) ssRNA): 5 nM
T1/2 Test 1 [4]: 4 min
